Like-named read-outs stand apart in the source and are kept apart here.
Test system: test plant species
Assay: Post-emergent herbicidal activity test (greenhouse, foliar spray, visual growth reduction)
Format: in vivo
Details: post-emergence, 336 h, 140 g ai/ha
Procedure, shortened: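 Scoring used a 0 to 100 percent visual scale of growth reduction against solvent-treated controls, read 14 d after spraying. Applications went onto plants at first or second true leaf stage, 187 L/ha, with crop oil concentrate and X-77 surfactant in the carrier. Post-treatment watering was by subirrigation to avoid wash-off.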

[1] = ALOMY: blackgrass (Alopecurus myosuroides), 14 days after application, read-out: Visual Growth Reduction (%) 14 Days After Application, ALOMY
[2] = AMARE: redroot pigweed (Amaranthus retroflexus), 14 days after application, read-out: Visual Growth Reduction (%) 14 Days After Application, AMARE
[3] = AVEFA: wild oat (Avena fatua), 14 days after application, read-out: Visual Growth Reduction (%) 14 Days After Application, AVEFA
[4] = CHEAL: lambsquarters (Chenopodium album), 14 days after application, read-out: Visual Growth Reduction (%) 14 Days After Application, CHEAL
[5] = CIRAR: canada thistle (Cirsium arvense), 14 days after application, read-out: Visual Growth Reduction (%) 14 Days After Application, CIRAR
[6] = CYPES: yellow nutsedge (Cyperus esculentus), 14 days after application, read-out: Visual Growth Reduction (%) 14 Days After Application, CYPES
[7] = DIGSA: crabgrass (Digitaria sanguinalis), 14 days after application, read-out: Visual Growth Reduction (%) 14 Days After Application, DIGSA
[8] = ECHCG: barnyardgrass (Echinochloa crus-galli), 14 days after application, read-out: Visual Growth Reduction (%) 14 Days After Application, ECHCG
[9] = IPOHE: ivy-leaf morning glory (Ipomoea hederacea), 14 days after application, read-out: Visual Growth Reduction (%) 14 Days After Application, IPOHE
[10] = KCHSC: kochia (Bassia scoparia), 14 days after application, read-out: Visual Growth Reduction (%) 14 Days After Application, KCHSC
[11] = ORYSA: rice (Oryza sativa), 14 days after application, read-out: Visual Growth Reduction (%) 14 Days After Application, ORYSA
[12] = SETFA: giant foxtail (Setaria faberi), 14 days after application, read-out: Visual Growth Reduction (%) 14 Days After Application, SETFA
[13] = SORVU: grain sorghum (Sorghum vulgare), 14 days after application, read-out: Visual Growth Reduction (%) 14 Days After Application, SORVU
[14] = STEME: common chickweed (Stellaria media), 14 days after application, read-out: Visual Growth Reduction (%) 14 Days After Application, STEME
[15] = TRZAS: wheat, spring (Triticum aestivum), 14 days after application, read-out: Visual Growth Reduction (%) 14 Days After Application, TRZAS
[16] = blackgrass (Alopecurus myosuroides), 14 Days After Application, read-out: Visual Growth Reduction (%) ALOMY
[17] = canada thistle (Cirsium arvense), 14 Days After Application, read-out: Visual Growth Reduction (%) CIRAR
[18] = crabgrass (Digitaria sanguinalis), 14 Days After Application, read-out: Visual Growth Reduction (%) DIGSA
[19] = lambsquarters (Chenopodium album), 14 Days After Application, read-out: Visual Growth Reduction (%) CHEAL
[20] = redroot pigweed (Amaranthus retroflexus), 14 Days After Application, read-out: Visual Growth Reduction (%) AMARE
[21] = wild oat (Avena fatua), 14 Days After Application, read-out: Visual Growth Reduction (%) AVEFA
[22] = yellow nutsedge (Cyperus esculentus), 14 Days After Application, read-out: Visual Growth Reduction (%) CYPES

| Compound | pest or weed control at 140 g/ha [1] | pest or weed control at 140 g/ha [2] | pest or weed control at 140 g/ha [3] | pest or weed control at 140 g/ha [4] | pest or weed control at 140 g/ha [5] | pest or weed control at 140 g/ha [8] | pest or weed control at 140 g/ha [9] | pest or weed control at 140 g/ha [10] | pest or weed control at 140 g/ha [11] | pest or weed control at 140 g/ha [12] | pest or weed control at 140 g/ha [13] | pest or weed control at 140 g/ha [14] | pest or weed control at 140 g/ha [15] | pest or weed control at 140 g/ha [16] | pest or weed control at 140 g/ha [17] | pest or weed control at 140 g/ha [18] | pest or weed control at 140 g/ha [19] | pest or weed control at 140 g/ha [20] | pest or weed control at 140 g/ha [21] | pest or weed control at 140 g/ha [22] | further results |
| --- | --- | --- | --- | --- | --- | --- | --- | --- | --- | --- | --- | --- | --- | --- | --- | --- | --- | --- | --- | --- | --- |
| COC(=O)c1nc(-c2ccc(C(F)F)cc2Cl)ccc1Cl [F19, methyl 3-chloro-6-(2-chloro-4-(difluoromethyl)phenyl)picolinate] | 0 to 29% | 95 to 100% | 0 to 29% | 95 to 100% | 95 to 100% | – | – | – | – | – | – | – | – | – | – | – | – | – | – | – | pest or weed control at 140 g/ha [6]: 30 to 44%; pest or weed control at 140 g/ha [7]: 0 to 29%; pest or weed control at 140 g/ha (barnyardgrass (Echinochloa crus-galli), 14 Days After Application, read-out: Visual Growth Reduction (%) ECHCG): 0 to 29%; pest or weed control at 140 g/ha (common chickweed (Stellaria media), 14 Days After Application, read-out: Visual Growth Reduction (%) STEME): 0 to 29%; pest or weed control at 140 g/ha (giant foxtail (Setaria faberi), 14 Days After Application, read-out: Visual Growth Reduction (%) SETFA): 0 to 29%; pest or weed control at 140 g/ha (ivy-leaf morning glory (Ipomoea hederacea), 14 Days After Application, read-out: Visual Growth Reduction (%) IPOHE): 95 to 100%; pest or weed control at 140 g/ha (johnsongrass (Sorghum vulgare), 14 Days After Application, read-out: Visual Growth Reduction (%) SORVU): 30 to 44%; pest or weed control at 140 g/ha (kochia (Bassia scoparia), 14 Days After Application, read-out: Visual Growth Reduction (%) KCHSC): 85 to 94%; pest or weed control at 140 g/ha (rice (Oryza sativa), 14 Days After Application, read-out: Visual Growth Reduction (%) ORYSA): 0 to 29%; pest or weed control at 140 g/ha (wheat, spring (Triticum aestivum), 14 Days After Application, read-out: Visual Growth Reduction (%) TRZAS): 0 to 29% |
| COC(=O)c1nc(-c2ccc(C(F)(F)F)cc2Cl)ccc1Br [F32, Methyl 3-bromo-6-(2-chloro-4-(trifluoromethyl)yl)picolinate] | 0 to 29% | 60 to 74% | 0 to 29% | 60 to 74% | 75 to 84% | 0 to 29% | 95 to 100% | 45 to 59% | 0 to 29% | 30 to 44% | 85 to 94% | 0 to 29% | 0 to 29% | – | – | – | – | – | – | – | pest or weed control at 140 g/ha [6]: 0 to 29%; pest or weed control at 140 g/ha [7]: 60 to 74% |
| COC(=O)c1nc(-c2ccc(C(F)(F)F)c(N)c2)ccc1Cl [F218, methyl 6-(3-amino-4-(trifluoromethyl)phenyl)-3-chloropicolinate] | – | – | – | – | – | 0 to 29% | 0 to 29% | 0 to 29% | 0 to 29% | 0 to 29% | 0 to 29% | 0 to 29% | 0 to 29% | 0 to 29% | 30 to 44% | 0 to 29% | 60 to 74% | 0 to 29% | 0 to 29% | 0 to 29% | – |
| COc1cc2c(cc1-c1ccc(Cl)c(C(=O)O)n1)OC(F)(F)O2 [F356, 3-Chloro-6-(2,2-difluoro-6-methoxybenzo[d][1,3]dioxol-5-yl)picolinic acid] | – | – | – | – | – | 0 to 29% | 95 to 100% | 0 to 29% | 0 to 29% | 0 to 29% | 30 to 44% | 0 to 29% | 0 to 29% | 0 to 29% | 0 to 29% | 0 to 29% | 60 to 74% | 0 to 29% | 0 to 29% | 0 to 29% | – |
| COC(=O)c1nc(-c2cc(Cl)c(C)cc2F)ccc1Cl [F271, Methyl 3-chloro-6-(5-chloro-2-fluoro-4-methylphenyl) picolinate] | – | – | – | – | – | 0 to 29% | 0 to 29% | 0 to 29% | 0 to 29% | 0 to 29% | 0 to 29% | 0 to 29% | 0 to 29% | 0 to 29% | 0 to 29% | 0 to 29% | 60 to 74% | 0 to 29% | 0 to 29% | 0 to 29% | – |
| COC(=O)c1nc(-c2ccc3ncoc3c2)ccc1Cl [F262, Methyl 6-(benzo[d]oxazol-6-yl)-3-chloropicolinate] | – | – | – | – | – | 0 to 29% | 30 to 44% | 0 to 29% | 0 to 29% | 0 to 29% | 0 to 29% | 0 to 29% | 0 to 29% | 0 to 29% | 0 to 29% | 0 to 29% | 30 to 44% | 0 to 29% | 0 to 29% | 0 to 29% | – |
| COC(=O)c1cc(Cl)cc(-c2ccc(C(F)(F)F)cc2Cl)n1 [F57, Methyl 4-chloro-6-(2-chloro-4-(trifluoromethyl)phenyl)picolinate] | 0 to 29% | 0 to 29% | 0 to 29% | 0 to 29% | 0 to 29% | 0 to 29% | 0 to 29% | 0 to 29% | 0 to 29% | 0 to 29% | 0 to 29% | 0 to 29% | 0 to 29% | – | – | – | – | – | – | – | pest or weed control at 140 g/ha [6]: 0 to 29%; pest or weed control at 140 g/ha [7]: 0 to 29% |
| COC(=O)c1nc(-c2ccc(C(F)F)c(F)c2OC)c(F)cc1Cl [F253, methyl 3-chloro-6-(4-(difluoromethyl)-3-fluoro-2-methoxyphenyl)-5-fluoropicolinate] | – | – | – | – | – | 60 to 74% | 95 to 100% | 95 to 100% | 0 to 29% | 0 to 29% | 45 to 59% | 0 to 29% | 0 to 29% | 0 to 29% | 95 to 100% | 0 to 29% | 95 to 100% | 95 to 100% | 0 to 29% | 0 to 29% | – |
| COC(=O)c1nc(-c2cc3c(cc2Cl)OCO3)c(F)cc1Cl [F150, Methyl 3-chloro-6-(6-chlorobenzo[d] [1,3]oxol-5-yl)-5-fluoropicolinate] | 0 to 29% | 75 to 84% | 0 to 29% | 75 to 84% | 85 to 94% | 0 to 29% | 85 to 94% | 45 to 59% | 0 to 29% | 30 to 44% | 0 to 29% | 0 to 29% | 0 to 29% | – | – | – | – | – | – | – | pest or weed control at 140 g/ha [6]: 0 to 29%; pest or weed control at 140 g/ha [7]: 0 to 29% |

— US20230017045A1, “PYRIDINE AND PYRIMIDINE CARBOXYLATE HERBICIDES AND METHODS OF USE THEREOF” (Dow AgroSciences LLC, priority 2017, published 2023)
